Results: the Kinase Knowledgebase extract (Sharma et al. 2016)

How the values were obtained:
[1] = target: PIK3CA (human) (UniProt P42336); test: Inhibition of PIK3CA Kinase Activity
[2] = target: PIK3CD (Human) (UniProt O00329); test: Inhibition of PIK3CD Kinase Activity
[3] = target: PIK3CG (human) (UniProt P48736); test: Inhibition of PIK3CG Kinase Activity
[4] = target: PIK3CB (Human) (UniProt P42338); test: Inhibition of PIK3CB Kinase Activity
PIK3CB (Human), sequence (P42338 whole entry, looked up): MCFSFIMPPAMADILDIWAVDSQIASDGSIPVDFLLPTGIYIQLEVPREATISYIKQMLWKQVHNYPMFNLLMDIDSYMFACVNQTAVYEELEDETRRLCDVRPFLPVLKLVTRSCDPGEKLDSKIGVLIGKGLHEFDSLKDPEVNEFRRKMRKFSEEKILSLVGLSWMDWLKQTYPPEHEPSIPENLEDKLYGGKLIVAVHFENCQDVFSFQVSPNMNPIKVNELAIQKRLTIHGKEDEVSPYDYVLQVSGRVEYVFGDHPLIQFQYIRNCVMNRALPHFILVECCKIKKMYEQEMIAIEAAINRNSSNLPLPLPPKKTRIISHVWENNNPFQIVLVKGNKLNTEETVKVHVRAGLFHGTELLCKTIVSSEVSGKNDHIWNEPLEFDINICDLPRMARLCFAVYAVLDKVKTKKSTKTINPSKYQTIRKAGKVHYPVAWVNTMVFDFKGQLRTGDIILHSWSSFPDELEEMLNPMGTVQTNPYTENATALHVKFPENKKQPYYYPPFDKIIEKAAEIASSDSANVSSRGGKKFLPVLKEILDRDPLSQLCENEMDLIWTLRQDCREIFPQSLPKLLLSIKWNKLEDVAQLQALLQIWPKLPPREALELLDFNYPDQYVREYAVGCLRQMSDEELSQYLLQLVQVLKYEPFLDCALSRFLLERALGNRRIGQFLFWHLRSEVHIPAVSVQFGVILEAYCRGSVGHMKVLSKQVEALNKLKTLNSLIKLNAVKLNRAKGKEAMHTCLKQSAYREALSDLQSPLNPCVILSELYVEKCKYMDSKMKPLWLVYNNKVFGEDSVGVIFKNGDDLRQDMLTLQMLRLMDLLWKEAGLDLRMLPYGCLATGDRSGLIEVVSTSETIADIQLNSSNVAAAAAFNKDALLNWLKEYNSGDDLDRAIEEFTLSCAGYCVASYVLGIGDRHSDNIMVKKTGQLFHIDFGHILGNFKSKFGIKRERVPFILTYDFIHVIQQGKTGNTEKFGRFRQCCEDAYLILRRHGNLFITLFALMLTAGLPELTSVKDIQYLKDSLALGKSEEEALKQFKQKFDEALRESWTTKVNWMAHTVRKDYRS

PIK3CG (human), sequence (P48736 whole entry, looked up): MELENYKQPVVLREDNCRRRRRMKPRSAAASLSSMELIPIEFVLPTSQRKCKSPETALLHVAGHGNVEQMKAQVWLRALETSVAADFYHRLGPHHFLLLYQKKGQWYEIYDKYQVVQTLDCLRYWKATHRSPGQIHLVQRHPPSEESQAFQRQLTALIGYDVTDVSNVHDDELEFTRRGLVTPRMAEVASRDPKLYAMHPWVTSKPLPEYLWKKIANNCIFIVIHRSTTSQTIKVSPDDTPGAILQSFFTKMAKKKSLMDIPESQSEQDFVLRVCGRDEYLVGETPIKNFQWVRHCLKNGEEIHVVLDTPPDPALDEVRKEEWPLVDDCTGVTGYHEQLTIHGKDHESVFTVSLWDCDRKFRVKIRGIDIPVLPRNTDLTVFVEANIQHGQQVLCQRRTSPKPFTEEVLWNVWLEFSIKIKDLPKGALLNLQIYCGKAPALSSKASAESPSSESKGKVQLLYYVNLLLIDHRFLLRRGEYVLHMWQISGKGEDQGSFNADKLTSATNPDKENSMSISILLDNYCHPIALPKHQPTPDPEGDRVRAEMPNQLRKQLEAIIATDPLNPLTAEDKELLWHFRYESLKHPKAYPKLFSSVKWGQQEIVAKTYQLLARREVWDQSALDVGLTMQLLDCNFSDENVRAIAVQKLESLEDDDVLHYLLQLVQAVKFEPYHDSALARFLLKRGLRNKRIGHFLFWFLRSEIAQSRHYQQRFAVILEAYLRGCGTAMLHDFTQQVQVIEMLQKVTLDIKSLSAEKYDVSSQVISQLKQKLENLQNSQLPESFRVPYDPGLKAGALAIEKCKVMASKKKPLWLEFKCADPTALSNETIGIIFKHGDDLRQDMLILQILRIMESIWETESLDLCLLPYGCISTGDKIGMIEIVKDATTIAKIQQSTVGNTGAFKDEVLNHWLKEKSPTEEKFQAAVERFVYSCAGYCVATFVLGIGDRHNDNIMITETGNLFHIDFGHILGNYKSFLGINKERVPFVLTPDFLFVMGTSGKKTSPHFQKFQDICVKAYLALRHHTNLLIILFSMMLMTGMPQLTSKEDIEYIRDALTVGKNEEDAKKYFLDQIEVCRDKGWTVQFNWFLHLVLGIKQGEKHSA
PIK3CD (Human), sequence (O00329 whole entry, looked up): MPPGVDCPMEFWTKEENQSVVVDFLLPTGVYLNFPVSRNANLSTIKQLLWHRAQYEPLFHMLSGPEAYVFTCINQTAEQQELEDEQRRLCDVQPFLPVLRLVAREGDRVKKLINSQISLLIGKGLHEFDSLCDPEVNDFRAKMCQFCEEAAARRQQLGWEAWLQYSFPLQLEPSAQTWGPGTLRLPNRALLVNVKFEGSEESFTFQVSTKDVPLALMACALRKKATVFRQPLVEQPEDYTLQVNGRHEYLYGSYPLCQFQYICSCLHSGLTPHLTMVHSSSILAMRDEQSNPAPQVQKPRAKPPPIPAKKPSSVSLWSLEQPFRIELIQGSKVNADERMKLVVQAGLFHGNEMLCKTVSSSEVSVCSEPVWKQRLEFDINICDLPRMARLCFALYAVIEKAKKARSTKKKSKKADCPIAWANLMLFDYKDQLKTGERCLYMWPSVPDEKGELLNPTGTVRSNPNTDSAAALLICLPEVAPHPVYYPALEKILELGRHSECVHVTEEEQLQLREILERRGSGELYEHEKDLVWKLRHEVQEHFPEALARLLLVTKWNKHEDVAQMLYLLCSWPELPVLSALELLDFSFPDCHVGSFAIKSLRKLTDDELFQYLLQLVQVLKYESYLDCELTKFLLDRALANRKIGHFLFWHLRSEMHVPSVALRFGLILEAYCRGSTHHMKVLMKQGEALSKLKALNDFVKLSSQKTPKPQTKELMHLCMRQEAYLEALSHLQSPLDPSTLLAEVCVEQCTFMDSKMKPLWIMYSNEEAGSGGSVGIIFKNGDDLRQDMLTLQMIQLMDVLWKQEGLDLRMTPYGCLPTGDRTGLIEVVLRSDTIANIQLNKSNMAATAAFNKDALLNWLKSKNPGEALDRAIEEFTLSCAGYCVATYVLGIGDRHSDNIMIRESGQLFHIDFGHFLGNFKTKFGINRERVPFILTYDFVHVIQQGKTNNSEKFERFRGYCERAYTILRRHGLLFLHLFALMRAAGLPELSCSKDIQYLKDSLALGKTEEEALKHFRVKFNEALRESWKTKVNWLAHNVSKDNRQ
PIK3CA (human), sequence (P42336 whole entry, looked up): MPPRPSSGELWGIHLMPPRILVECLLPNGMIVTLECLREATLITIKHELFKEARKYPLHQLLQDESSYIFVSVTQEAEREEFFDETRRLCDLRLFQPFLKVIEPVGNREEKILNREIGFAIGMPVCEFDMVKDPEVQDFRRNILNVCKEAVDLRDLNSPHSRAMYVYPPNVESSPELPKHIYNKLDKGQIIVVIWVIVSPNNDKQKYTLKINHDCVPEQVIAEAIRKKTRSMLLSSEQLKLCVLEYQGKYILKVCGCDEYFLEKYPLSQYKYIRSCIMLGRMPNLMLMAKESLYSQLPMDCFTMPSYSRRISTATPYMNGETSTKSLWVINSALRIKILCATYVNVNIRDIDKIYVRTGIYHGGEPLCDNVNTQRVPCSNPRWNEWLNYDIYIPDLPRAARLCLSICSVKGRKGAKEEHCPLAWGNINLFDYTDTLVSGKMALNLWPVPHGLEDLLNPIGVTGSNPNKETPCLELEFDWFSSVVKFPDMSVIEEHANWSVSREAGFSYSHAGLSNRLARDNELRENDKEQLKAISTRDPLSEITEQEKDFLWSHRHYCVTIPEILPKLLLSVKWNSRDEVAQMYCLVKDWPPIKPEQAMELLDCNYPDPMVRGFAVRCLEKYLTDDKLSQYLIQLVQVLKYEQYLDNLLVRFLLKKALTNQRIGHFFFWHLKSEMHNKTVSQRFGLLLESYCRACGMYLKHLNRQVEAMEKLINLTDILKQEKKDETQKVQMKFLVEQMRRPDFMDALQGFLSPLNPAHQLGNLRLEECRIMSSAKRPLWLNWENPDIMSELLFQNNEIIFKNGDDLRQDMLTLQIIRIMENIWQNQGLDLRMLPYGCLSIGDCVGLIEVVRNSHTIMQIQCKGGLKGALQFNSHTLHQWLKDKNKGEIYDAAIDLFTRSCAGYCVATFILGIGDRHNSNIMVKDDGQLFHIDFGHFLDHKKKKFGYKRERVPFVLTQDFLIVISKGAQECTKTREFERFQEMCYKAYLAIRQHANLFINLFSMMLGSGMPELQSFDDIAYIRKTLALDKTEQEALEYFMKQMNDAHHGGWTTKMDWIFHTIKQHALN

Row | SMILES | IC50 [1] | IC50 [2] | IC50 [3] | IC50 [4]
1 | CC(=S)Nc1cn2nc(-c3cccc(S(C)(=O)=O)c3)ccc2n1 | < 1000 nM | < 1000 nM | < 1000 nM | –
2 | CC(=O)Nc1nc2ccc(-c3ccc(C)c(S(C)(=O)=O)c3)cc2s1 | – | < 1000 nM | – | –
3 | CC(=O)Nc1cn2cc(-c3cccc(S(C)(=O)=O)c3)ccc2n1 | < 1000 nM | < 1000 nM | – | –
4 | CC(=O)Nc1nc2ccc(-c3cccc(S(=O)(=O)N4CCCC(N)C4)c3)cc2s1 (centres undefined) | < 1000 nM | < 1000 nM | < 1000 nM | < 1000 nM
5 | CC(C)c1noc(CCNC(=O)Nc2nc3ccc(-c4cccc(S(=O)(=O)N(C)C)c4)cc3s2)n1 | > 20000 nM | – | – | –
6 | CC(=O)Nc1nc2ccc(-c3cccc(S(=O)(=O)N4CCN(C)C(=O)C4)c3)cc2s1 | < 1000 nM | – | – | –
7 | CC(=O)Nc1cn2nc(-c3cccc(S(C)(=O)=O)c3)ccc2n1 | < 1000 nM | < 1000 nM | < 1000 nM | –
8 | CC(=O)Nc1nc2ccc(-c3ccc(O)c(F)c3)cc2s1 | – | – | < 1000 nM | –
9 | COc1cc(-c2ccc3nc(NC(C)=O)cn3n2)ccc1O | < 1000 nM | < 1000 nM | < 1000 nM | < 1000 nM
10 | CC(=O)Nc1nc2ccc(-c3cccc(S(=O)(=O)N4CCC(O)CC4)c3)cc2s1 | < 1000 nM | < 1000 nM | < 1000 nM | –
11 | COc1cc(-c2ccc3nc(NC(=O)NCCC(=O)OC(C)(C)C)sc3c2)ccc1O | – | – | < 1000 nM | –
12 | CS(=O)(=O)c1cccc(-c2ccc3nc(NC(=O)NCCC(=O)N4CCOCC4)sc3c2)c1 | – | – | < 1000 nM | < 1000 nM
13 | CC(=O)Nc1nc2ccc(-c3cncc(S(=O)(=O)N(C)C)c3)cc2s1 | < 1000 nM | < 1000 nM | < 1000 nM | < 1000 nM
14 | CC(C)(C)OCCCNC(=O)Nc1nc2ccc(-c3cccc(S(C)(=O)=O)c3)cc2s1 | > 20000 nM | > 20000 nM | – | –
15 | CS(=O)(=O)c1cccc(-c2ccc3nc(NC(=O)NCCC(=O)N4CCCC4)sc3c2)c1 | – | < 1000 nM | < 1000 nM | < 1000 nM
16 | CN(C)C(=O)CNC(=O)Nc1nc2ccc(-c3cccc(S(C)(=O)=O)c3)cc2s1 | < 1000 nM | < 1000 nM | < 1000 nM | –
17 | CCOC(=O)CCNC(=O)Nc1nc2ccc(-c3cccc(S(C)(=O)=O)c3)cc2s1 | – | – | < 1000 nM | < 1000 nM
18 | COc1cc(-c2ccc3nc(NC(=O)NCC(=O)N4CCOCC4)sc3c2)ccc1O | < 1000 nM | < 1000 nM | < 1000 nM | < 1000 nM
19 | CS(=O)(=O)c1cccc(-c2ccc3nc(NC=O)sc3c2)c1 | – | – | – | > 20000 nM

Row | SMILES | IC50 [1] | IC50 [2] | IC50 [3] | IC50 [4]
20 | CS(=O)(=O)c1cccc(-c2ccc3nc(NC(=O)NCC(=O)N4CCOCC4)sc3c2)c1 | < 1000 nM | < 1000 nM | < 1000 nM | –
21 | CC(C)n1nnc(CCNC(=O)Nc2nc3ccc(-c4cccc(S(C)(=O)=O)c4)cc3s2)n1 | – | – | < 1000 nM | –
22 | CC(=O)Nc1nc2ccc(-c3cccc(S(C)(=O)=O)n3)cc2s1 | < 1000 nM | < 1000 nM | – | > 20000 nM
23 | CS(=O)(=O)c1cccc(-c2ccc3nc(NC(=O)C(=O)N4CCCC4)sc3c2)c1 | – | < 1000 nM | – | –
24 | COc1cc(-c2ccc3nc(NC(C)=O)sc3c2)ccc1O | < 1000 nM | < 1000 nM | < 1000 nM | < 1000 nM
25 | CS(=O)(=O)c1cccc(-c2ccc3nc(NC(=O)NCCc4noc(-c5ccccc5)n4)sc3c2)c1 | – | – | > 20000 nM | –
26 | CC(=O)Nc1nc2ccc(-c3cccc(S(=O)(=O)N4CCCC(O)C4)c3)cc2s1 (centres undefined) | < 1000 nM | < 1000 nM | < 1000 nM | –
27 | CN(C)S(=O)(=O)c1cccc(-c2ccc3nc(NC(=O)NCCC(=O)OC(C)(C)C)sc3c2)c1 | > 20000 nM | – | < 1000 nM | < 1000 nM
28 | CC(=O)Nc1nc2ccc(-c3cccc(S(=O)(=O)N4CCOCC4)c3)cc2s1 | < 1000 nM | – | < 1000 nM | –
29 | CC(C)n1cnc(CCNC(=O)Nc2nc3ccc(-c4cccc(S(C)(=O)=O)c4)cc3s2)c1 | – | – | < 1000 nM | < 1000 nM
30 | CC(C)(C)OC(=O)CCNC(=O)Nc1nc2ccc(-c3cccc(S(C)(=O)=O)c3)cc2s1 | > 20000 nM | > 20000 nM | < 1000 nM | < 1000 nM
31 | CC(=O)Nc1nc2ccc(-c3ccncc3)cc2s1 | – | – | < 1000 nM | –
32 | COc1cc(-c2ccc3nc(NC(=O)NCCc4nc(C(C)C)no4)sc3c2)ccc1O | – | – | – | < 1000 nM
33 | CC(=O)Nc1cn2nc(-c3cccc(S(=O)(=O)NCCO)c3)ccc2n1 | < 1000 nM | < 1000 nM | < 1000 nM | –
34 | CC(=O)Nc1nc2ccc(-c3cccc(S(=O)(=O)NC4CCCN(C(=O)OC(C)(C)C)C4)c3)cc2s1 (centres undefined) | < 1000 nM | – | – | –
35 | CC(=O)Nc1nc2ccc(-c3cccc(S(=O)(=O)N4CCCC(NC(=O)OC(C)(C)C)C4)c3)cc2s1 (centres undefined) | < 1000 nM | – | – | –
36 | COc1cccc(-c2ccc3nc(NC(C)=O)sc3c2)c1 | – | > 20000 nM | – | –
37 | CS(=O)(=O)c1cccc(-c2ccc3nc(NC(=O)c4ccco4)sc3c2)c1 | > 20000 nM | > 20000 nM | – | –
38 | CC(=O)Nc1nc2ccc(-c3cncc(S(N)(=O)=O)c3)cc2s1 | < 1000 nM | < 1000 nM | < 1000 nM | < 1000 nM

Second part, the compound after the results:

Row | IC50 [1] | IC50 [2] | IC50 [3] | IC50 [4] | SMILES
39 | < 1000 nM | < 1000 nM | < 1000 nM | – | COCCNS(=O)(=O)c1cccc(-c2ccc3nc(NC(C)=O)sc3c2)c1
40 | < 1000 nM | < 1000 nM | < 1000 nM | < 1000 nM | CC(=O)Nc1nc2ccc(-c3cccc(S(=O)(=O)NCCO)c3)cc2s1
41 | – | – | > 20000 nM | – | COC(=O)c1cccc(-c2ccc3nc(NC(C)=O)sc3c2)c1
42 | > 20000 nM | – | – | – | CC(=O)Nc1nc2ccc(-c3cc(C(F)(F)F)cc(S(=O)(=O)NCCO)c3)cc2s1
43 | – | – | < 1000 nM | – | CC(=O)Nc1nc2ccc(-c3cccc(NS(=O)(=O)N(C)C)c3)cc2s1
44 | < 1000 nM | < 1000 nM | < 1000 nM | – | CC(=O)Nc1nc2ccc(-c3cccc(S(=O)(=O)N(CCO)CCO)c3)cc2s1
45 | < 1000 nM | < 1000 nM | < 1000 nM | – | CC(=O)Nc1nc2ccc(-c3cccc(S(=O)(=O)NC4CCCNC4)c3)cc2s1 (centres undefined)
46 | – | < 1000 nM | – | – | CCC(=O)Nc1nc2ccc(-c3cccc(S(C)(=O)=O)c3)cc2s1
47 | – | – | < 1000 nM | – | CC(=O)Nc1nc2ccc(-c3cccc(C(N)=O)c3)cc2s1
48 | < 1000 nM | < 1000 nM | – | – | CC(=O)Nc1nc2ccc(-c3cccc(S(=O)(=O)CCCO)c3)cc2s1
49 | – | – | < 1000 nM | < 1000 nM | CC(C)c1noc(CCNC(=O)Nc2nc3ccc(-c4cccc(S(=O)(=O)NCCO)c4)cc3s2)n1
50 | < 1000 nM | < 1000 nM | < 1000 nM | – | CC(=O)Nc1nc2ccc(-c3cccc(S(N)(=O)=O)c3)cc2s1
51 | < 1000 nM | < 1000 nM | < 1000 nM | – | CC(=O)Nc1nc2ccc(-c3ccc(Cl)c(S(=O)(=O)NCCO)c3)cc2s1
52 | < 1000 nM | < 1000 nM | < 1000 nM | – | CC(=O)Nc1nc2ccc(-c3cccc(S(C)(=O)=O)c3)cc2s1
53 | – | – | < 1000 nM | < 1000 nM | CC(C)(C)OC(=O)CCNC(=O)Nc1nc2ccc(-c3cccc(S(=O)(=O)NCCO)c3)cc2s1
54 | < 1000 nM | < 1000 nM | < 1000 nM | – | CC(=O)Nc1nc2ccc(-c3cccc(S(=O)(=O)NC(CO)CO)c3)cc2s1
55 | < 1000 nM | < 1000 nM | < 1000 nM | – | CC(=O)Nc1nc2ccc(-c3cccc(S(=O)(=O)NCC(O)CO)c3)cc2s1 (centres undefined)
56 | < 1000 nM | < 1000 nM | < 1000 nM | – | CC(=O)Nc1nc2ccc(-c3cccc(S(=O)(=O)NC4CCCOC4)c3)cc2s1 (centres undefined)
57 | < 1000 nM | < 1000 nM | < 1000 nM | – | CCNS(=O)(=O)c1cccc(-c2ccc3nc(NC(C)=O)sc3c2)c1
58 | < 1000 nM | < 1000 nM | < 1000 nM | – | CC(=O)Nc1nc2ccc(-c3cccc(S(=O)(=O)NCCN4CCOCC4)c3)cc2s1
59 | < 1000 nM | – | < 1000 nM | – | CC(=O)Nc1nc2ccc(-c3cccc(S(=O)(=O)N(C)C)c3)cc2s1
60 | – | – | – | > 20000 nM | CC(=O)Nc1nc2ccc(-c3cccc(C(=O)NCCO)c3)cc2s1
61 | < 1000 nM | < 1000 nM | < 1000 nM | < 1000 nM | CC(=O)Nc1nc2ccc(-c3cccc(S(=O)(=O)N(C)CCO)c3)cc2s1
62 | – | < 1000 nM | < 1000 nM | – | CC(=O)Nc1nc2ccc(-c3cccc(S(=O)(=O)CCO)c3)cc2s1
63 | < 1000 nM | < 1000 nM | < 1000 nM | – | CC(=O)Nc1nc2ccc(-c3cccc(NS(C)(=O)=O)c3)cc2s1
64 | < 1000 nM | < 1000 nM | < 1000 nM | – | CC(=O)Nc1nc2ccc(-c3cccc(S(=O)(=O)NCCCO)c3)cc2s1
